Assay results taken from publication PMC4860837, “Structural basis for Sfm1 functioning as a protein arginine methyltransferase” (Cell Discovery, 2015).

Target: T1, Sfm1 (Saccharomyces cerevisiae, UniProt Q12314)
T1 construct: full length, residues 1-213; C-terminal His6 tag (crystal) or N-terminal GST tag (activity assay), E. coli BL21(DE3); monomer
Test: X-ray crystallography, […] Å
Format: binding
Details: co-crystallised with SAH ([…] molar ratio), pH […] °C; cofactor pocket of trefoil knot

Nc1ncnc2c1ncn2[C@@H]1O[C@H](CSCC[C@H](N)C(=O)O)[C@@H](O)[C@H]1O [SAH]
X-ray crystallography, 2.5 Å: In the SAH-bound Sfm1 structure, SAH is clearly defined in the electron density map
